Key:
[1] = tested on: MNC and macrophages from RA synovial fluid; assay: uptake of FITC-labeled oligonucleotides by flow cytometry; assay type: cell-based, human; details: 10-20 μM, 24h, 70% ETOH fixed cells
Method: MNC and macrophages from RA synovial fluid are incubated for 24h with FITC-labeled antisense phosphorothioate oligodeoxynucleotides (10-20 μM) comprising the FLIP initiation codon (5′-[…]-3′) (SEQ ID NO: 2). A nonsense oligonucleotides is used as negative control (for example; 5′-TGGATCCGACATGTCAGA-3′) (SEQ ID NO: 3). Uptake of the FITC-labeled oligonucleotides are measured by flow cytometry on 70% ETOH fixed cells. A 80-90% transfection efficiency is expected. A general caspase inhibitor (e.g., 20 μM zVAD.fmk) is used as negative control in all apoptosis assays. As a positive control of macrophage apoptosis, the cells are treated with 50 μM of the phosphatidylinositol 3-kinase inhibitor LY294002 for 24 h.

rheumatoid arthritis = details: methotrexate treatment; level after 6 months therapy; cited from earlier work
[2] = tested on: RA patients' synovial macrophages; details: Fas agonist with vs without BIS, which blocked FLIP expression; cited from earlier work

Molecule: 5′-GACTTCAGCAGACATCCTAC-3′ (DNA, all phosphorothioate, methylation of C not given here; FITC label; listed as Homo sapiens) [FITC-labeled antisense phosphorothioate oligodeoxynucleotides comprising the FLIP initiation codon]
- transfection efficiency (uptake of FITC-labeled oligonucleotides) [1]: 80-90%

Molecule: CN(Cc1cnc2nc(N)nc(N)c2n1)c1ccc(C(=O)N[C@@H](CCC(=O)O)C(=O)O)cc1 [Methotrexate, methotrexate]
- decrease in rate of cartilage degradation (rheumatoid arthritis): approximately 17%
- decrease in synovial cell density (rheumatoid arthritis): approximately 33%

Molecule: CN(C)CCCn1cc(C2=C(c3c[nH]c4ccccc34)C(=O)NC2=O)c2ccccc21 [bisinodylmaleimide I]
- increase in macrophage apoptosis [2]: ~9 fold

Reference: patent publication US20050208151A1, “Treatment of rheumatoid arthritis with FLIP antagonists” (Entelos, Inc., priority 2003, published 2005)
